Reference: patent publication US20060205692A1, “1,1-and 1,2-Bisphosphonates as apoliprotein e modulators” (priority 2002, published 2006)

System: ApoE
Assay: apoE secretion by PMA-differentiated THP-1 cells, apoE quantified by ELISA
Format: cell-based, human
Conditions: 3 days; for percent change in apoE secretion versus control at 25 µM / percent change in apoE secretion versus control at 50 µM / percent change in apoE secretion versus control at 100 µM: Homo sapiens, THP-1, 72 h
Excerpt: The bisphosphonate compounds of the invention can modulate (increase or decrease) apoE levels in plasma and in tissues. The activities of the compounds can be determined in an in vitro cell assay comprising determining the modulatory effect of the test compound on the secretion of apoE by an apoE secreting cell line (e.g., a monocyte-macrophage cell line such as the THP-1 cell line, a liver derived cell line such as the HepG2 cell line, an intestinal derived cell line such as the CaCo2 cell line or a brain derived cell line such as the astrocytoma CCF-STTG1 cell line).
THP-1 cell line (ATCC TIB-202) are cultured in RPMI 1640 (with 2 mM of L-glutamine and 2 g/l of glucose, Invitrogen) supplemented with 2 g/l of sodium hydrogen carbonate (Fluka), 10 U/ml of penicillin, 10 μg/ml of streptomycin (Penicillin-Streptomycin, Invitrogen), 20 μM of 2-mercaptoethanol (Fluka) and 10% FCS (Amimed). Cells are incubated at 37° C. and 5% CO2.
Cells are seeded in 24 well tissue culture plates (Falcon), 2×10^5 cells in 500 μl of culture medium per well or 6 well plates for RT-PCR purpose, 1×10^6 cells in 2.5 ml of medium. PMA (Phorbol 12-myristate 13-acetate, Alexis), (stock in DMSO (Fluka) at 1 mg/ml) and other compounds are diluted in ethanol and added to the cells at an ethanol final concentration not exceeding 1%. Same volume of ethanol is added in controls. Plates are incubated for 3 days at 37° C. and 5% CO2 to allow cell differentiation and apoE secretion.
Medium contained in the wells is harvested and centrifuged 5 min at 1200 rpm. Supernatants are store at −20° C. until apoE quantification. The cell pellets are resuspended in PBS and counted with a ZI Coulter Counter. After a wash with PBS, adherent cells in the well bottoms are detached with trypsin-EDTA solution 10× (Invitrogen) diluted in PBS. The reaction is stopped with the addition of culture medium and the detached cells are counted.
ApoE was quantified by ELISA. 96 well plates (Costar) are coated with 5% of gelatine (from porcine skin, Fluka) in carbonate-bicarbonate buffer (Sigma) for 1 hour at 37° C. After removing the coating solution, 100 μl of THP-1 supernatant are added per well, diluted 5 times in buffer (PBS, 1% Top-Block (Juro), 0.1% Tween 20 (Fluka)). The incubation last 1 hour at 37° C., then the wells are washed 3 times with 200 μl of buffer. Plates are incubated for 1 hour at 37° C. with continuous stirring with the primary antibody (goat anti-human apoE IgG, Calbiochem) at a 10000-time dilution in buffer, 100 μl per well. After 3 washes, plates are incubated with the secondary antibody (rabbit anti-goat-IgG peroxidase conjugated, Sigma) diluted 5000 times, 100 μl per well, at 37° C. with shaking. Then the wells are washed 5 more times and the detection is achieved by adding 100 μl per well of o-phenylenediamine dihydrochloride (Sigma) and incubated for 15-20 minutes with shaking at room temperature. When the appropriated colour is reached, the reaction is stopped by adding 50 μl per well of 3 M sulfuric acid (Fluka) with shaking for 1 minute at room temperature. The absorbance is read at 492 nm versus 620 nm with a microplate photometer (Anthos Reader 2001).

| SMILES | % ApoE Change (compound 25 μM, 1.25 nM PMA) | % ApoE Change (compound 25 μM, 2.5 nM PMA) | % ApoE Change (compound 50 μM, 1.25 nM PMA) | % ApoE Change (compound 50 μM, 2.5 nM PMA) | % ApoE Change (compound 100 μM, 1.25 nM PMA) | % ApoE Change (compound 100 μM, 2.5 nM PMA) | percent change in apoE secretion versus control at 25 µM (compound 25 μM, 1.25 nM PMA) | percent change in apoE secretion versus control at 25 µM (compound 25 μM, 2.5 nM PMA) | percent change in apoE secretion versus control at 50 µM (compound 50 μM, 1.25 nM PMA) | percent change in apoE secretion versus control at 50 µM (compound 50 μM, 2.5 nM PMA) | percent change in apoE secretion versus control at 100 µM (compound 100 μM, 1.25 nM PMA) | percent change in apoE secretion versus control at 100 µM (compound 100 μM, 2.5 nM PMA) |
| --- | --- | --- | --- | --- | --- | --- | --- | --- | --- | --- | --- | --- |
| COP(=O)(OC)C(c1ccc(O)cc1)P(=O)(OC)OC [Tetramethyl 1-(4-hydroxy-phenyl)methylidene-1,1-bisphosphonate] | −7% | −17% | −27% | −25% | −19% | −10% | – | – | – | – | – | – |
| CCOP(=O)(CC(c1ccc(OCCN(C)c2ccccn2)cc1)P(=O)(OCC)OCC)OCC (stereo not drawn) [Tetraethyl 1-{4-[2-(methyl-pyridin-2-yl-amino)ethoxy]-phenyl}-ethylidene-1,2-bisphosphonate] | – | – | – | – | – | – | 77% | 110% | 202% | 124% | 569% | 206% |
| CC(C)OP(=O)(OC(C)C)C(c1ccc(O)cc1)P(=O)(OC(C)C)OC(C)C [Tetraisopropyl 1-(4-hydroxy-phenyl)-methylidene-1,1-bisphosphonate] | – | – | – | – | – | – | 290% | 52% | 399% | 35% | 488% | 73% |
